Assay results taken from patent publication US8273787B2, “Activated cytotoxic compounds for attachment to targeting molecules for the treatment of mammalian disease conditions” (Onconova Therapeutics, Inc, priority 2006, dated 2012).

Assays:
PC-3 = experiment: 96 hour growth inhibition, PC-3; format: cell-based; conditions: Homo sapiens, PC-3, PROSTATE (AR−)
Description: (§1) Two compounds were selected from our library of cytotoxic molecules for immunoconjugation since they both have IC50 values in the low nanomolar range. Various tumor cell lines (ATCC) were treated for 96 hours in the presence of increasing concentrations of each compound and the total number of viable cells remaining was determined after 96 hours of exposure. The IC50 value was determined to be the amount of drug required to inhibit the growth of each cell line 50% as compared to vehicle treated cells.

Sk-OV-3 = experiment: 96 hour growth inhibition, Sk-OV-3; format: cell-based; conditions: Homo sapiens, Sk-OV-3, OVARIAN
Description: as §1

MIA-PaCa2 = experiment: 96 hour growth inhibition, MIA-PaCa2; format: cell-based; conditions: Homo sapiens, MIA PaCa-2
Description: as §1

U87 = experiment: 96 hour growth inhibition, U87; format: cell-based; conditions: Homo sapiens, U-87 MG, U87, GLIOBLASTOMA
Description: as §1

H157 = experiment: 96 hour growth inhibition, H157; format: cell-based; conditions: Homo sapiens, NCI-H157, H157, NSCLC
Description: as §1

A549 = experiment: 96 hour growth inhibition, A549; format: cell-based; conditions: Homo sapiens, A549, NSCLC
Description: as §1

N417 = experiment: 96 hour growth inhibition, N417; format: cell-based; conditions: N417, SCLC
Description: as §1

AGS = experiment: 96 hour growth inhibition, AGS; format: cell-based; conditions: Homo sapiens, GASTRIC
Description: as §1

RF1 = experiment: 96 hour growth inhibition, RF1; format: cell-based; conditions: RF1, GASTRIC
Description: as §1

RF48 = experiment: 96 hour growth inhibition, RF48; format: cell-based; conditions: RF48, GASTRIC
Description: as §1

HCT-116 = experiment: 96 hour growth inhibition, HCT-116; format: cell-based; conditions: Homo sapiens, HCT-116, COLO-RECTAL
Description: as §1

HCT-15 = experiment: 96 hour growth inhibition, HCT-15; format: cell-based; conditions: Homo sapiens, HCT-15, COLO-RECTAL
Description: as §1

SW480 = experiment: 96 hour growth inhibition, SW480; format: cell-based; conditions: Homo sapiens, SW480, COLO-RECTAL
Description: as §1

SK-MEL-28 = experiment: 96 hour growth inhibition, SK-MEL-28; format: cell-based; conditions: Homo sapiens, SK-MEL-28, MELANOMA
Description: as §1

CEM = experiment: 96 hour growth inhibition, CEM; format: cell-based; conditions: Homo sapiens, CCRF-CEM
Description: as §1
(§2) Another extremely important predictive factor is the ability of these compounds to kill cell lines overexpressing multiple drug resistance (MDR) genes. A very high percentage of cancer patient relapses are due to some form of resistance to traditional chemotherapy. Of these patients, the vast majority express one or more of the MDR genes within the ABC transport gene family. Overexpression of these genes increases the efflux of compounds that are recognized by these pumping systems. […] Onconova's benzyl styryl sulfone compounds are not recognized by the MDR-1 gene and therefore provide an advantage over other highly toxic drugs including but not limited to the taxanes, doxorubicin, etoposide, and vinca-alkaloids. […] MES-SA/Dx5, uterine sarcoma, and […], ovarian, are both classical multidrug resistant cell lines that are cross resistant to the taxanes and anthracyclins. Harker, W G, and Sikic, B. I., Multidrug (Pleiotropic) Resistance In Doxorubicin-Selected Variants Of The Human Sarcoma Cell Line MES-SA, Cancer Res. 45(9):4091-6 (1985). MES-SA/Dx5 and Apr. […] Fujimori, A., et al., Mutation At The Catalytic Site Of Topoisomerase I In CEM/C2, A Human Leukemia Cell Line Resistant To Camptothecin, Cancer Res. 55(6): 1339-46 (1995). ON 01500 and ON 013100, for example, are both extremely active against these resistant cell lines.

K562 = experiment: 96 hour growth inhibition, K562; format: cell-based; conditions: Homo sapiens, K562, CML
Description: as §1

MOLT-4 = experiment: 96 hour growth inhibition, MOLT-4; format: cell-based; conditions: Homo sapiens, MOLT-4, T-lymphoblastic:ALL
Description: as §1

MCF-7 = experiment: growth inhibition, breast carcinoma cell line MCF-7; format: cell-based; conditions: Homo sapiens, MCF7; MCF-7, BREAST (ER+), HER2 +
Description: as §1
(§3) Certain embodiments of immunoconjugates described herein are targeted to HER2 expressing breast cancer cells. Certain embodiments of immunoconjugates described herein are targeted to multiple myeloma (MM) cell lines expressing the surface antigens CD38 and or CD138. The IC50 value of ON 015100 and ON 013100 was determined for a number of breast cell lines as well as a panel of multiple myeloma cell lines expressing varying levels of each antigen and the data are shown in table (4) and table (5), respectively. […] Two cell lines, SK-BR-3 and BT474, known to express very high levels of HER2 are more than 2 fold more sensitive to ON 013100 as compared to the cell lines which express lower levels of HER2. Marx C., et al., Validated High-Throughput Screening of Drug-Like Small Molecules for Inhibitors of ErbB2 Transcription. Assay Drug Dev. […]

BT474 = experiment: growth inhibition, breast carcinoma cell line BT474; format: cell-based; conditions: Homo sapiens, BT-474; BT474, BREAST (ER+), HER2 ++++
Description: as §1, §3

MES-SA (PARENTAL) = experiment: growth inhibition, MES-SA (parental); format: cell-based; conditions: Homo sapiens, uterine sarcoma
Description: as §1, §2

MES-SA/Dx5 (RESISTANT) = experiment: growth inhibition, MES-SA/Dx5 (resistant); format: cell-based, Human; conditions: for IC50: Homo sapiens, MES-SA/Dx5 (RESISTANT), uterine sarcoma, multidrug resistant; for RSIST-ANCE: MES-SA/Dx5 (RESISTANT) versus MES-SA (PARENTAL)
Description: as §1, §2

2008 (PARENTAL) = experiment: growth inhibition, 2008 (parental); format: cell-based; conditions: ovarian
Description: as §1, §2

2008/17/4 (RESISTANT) = experiment: growth inhibition, 2008/17/4 (resistant); format: cell-based; conditions: for RSIST-ANCE: 2008/17/4 (RESISTANT) versus 2008 (PARENTAL); for IC50: 2008/17/4 (RESISTANT), ovarian, multidrug resistant
Description: as §1, §2

CEM/C2 (RESISTANT) = experiment: growth inhibition, CEM/C2 (resistant); format: cell-based, Human; conditions: for RSIST-ANCE: CEM/C2 (RESISTANT) versus CEM (PARENTAL); for IC50: Homo sapiens, CEM/C2 (RESISTANT), non classical multiple drug resistant
Description: as §1, §2

Row | Compound | IC50 (PC-3) [nM] | IC50 (Sk-OV-3) [nM] | IC50 (MIA-PaCa2) [nM] | IC50 (U87) [nM] | IC50 (H157) [nM] | IC50 (A549) [nM] | IC50 (N417) [nM] | IC50 (AGS) [nM] | IC50 (RF1) [nM] | IC50 (RF48) [nM] | IC50 (HCT-116) [nM] | IC50 (HCT-15) [nM] | IC50 (SW480) [nM] | IC50 (SK-MEL-28) [nM] | IC50 (CEM; CEM (PARENTAL)) [nM] | IC50 (CEM; CEM, […], 96 hours) [nM] | IC50 (K562) [nM] | IC50 (MOLT-4) [nM] | IC50 (MCF-7) [nM] | IC50 (BT474) [nM] | other results
1 | COc1cc(OC)c(/C=C/S(=O)(=O)Cc2ccc(OC)c(N)c2)c(OC)c1 [ON 01500, (E)-2,4,6-trimethoxystyryl-4-methoxy-3-aminobenzylsulfone] | 6 | 3 | 3 | 3 | 4 | 3 | 3 | 3 | 2 | 1 | 6 | 5 | 6 | 5 | 10 | 10 | 2.5 | 4 | 1 | 2 | IC50 (MES-SA (PARENTAL)): 4 nM; IC50 (MES-SA/Dx5 (RESISTANT)): 4 nM; RSIST-ANCE (MES-SA/Dx5 (RESISTANT)): 1; IC50 (2008 (PARENTAL)): 3 nM; RSIST-ANCE (2008/17/4 (RESISTANT)): 1; IC50 (2008/17/4 (RESISTANT)): 3 nM; RSIST-ANCE (CEM/C2 (RESISTANT)): 1; IC50 (CEM/C2 (RESISTANT)): 10 nM
2 | COc1cc(OC)c(/C=C/S(=O)(=O)Cc2ccc(OC)c(O)c2)c(OC)c1 [ON 013100, (E)-5-((2,4,6-trimethoxystyrylsulfonyl)methyl)-2-methoxyphenol] | 5 | 4 | 3 | 7 | 7 | 10 | 3 | 5 | 3 | 1 | 6 | 7 | 5 | 7 | 4 | 4 | 4 | 1.5 | 10 | 3 | IC50 (MES-SA (PARENTAL)): 5 nM; IC50 (MES-SA/Dx5 (RESISTANT)): 5 nM; RSIST-ANCE (MES-SA/Dx5 (RESISTANT)): 1; IC50 (2008 (PARENTAL)): 5 nM; RSIST-ANCE (2008/17/4 (RESISTANT)): 1.3; IC50 (2008/17/4 (RESISTANT)): 6 nM; RSIST-ANCE (CEM/C2 (RESISTANT)): 0.75; IC50 (CEM/C2 (RESISTANT)): 3 nM
